Target: T1, His-tagged recombinant human TrkA (Homo sapiens, UniProt P04629)
T1 construct: 6HIS tagged cytoplasmic domain from Invitrogen, Catalog No. PV3144; purchased Invitrogen PV3144
Experiment: TrkA Kinase Binding Assay (LanthaScreen Eu)
Settings: averaged IC50; TR-FRET binding, 60 min, 22° C.; read-out: TrkA Enzyme IC50
Experimental: TrkA binding activity was determined in a TrkA LanthaScreen™ Eu Kinase Binding Assay. 5 nM His-tagged recombinant human TrkA (6HIS tagged cytoplasmic domain from Invitrogen, Catalog No. PV3144) was incubated with 4 nM Alexa-Fluor® Tracer 236 (Invitrogen Cat. No. PV5592), 2 nM biotinylated anti-His (Invitrogen Cat. No. PV6090), and 2 nM europium-labeled Streptavidin (Invitrogen Cat. No. PV5899), in buffer (25 mM MOPS, pH 7.5, 5 mM MgCl2, 0.005% Triton X-100). Three fold serial dilutions of compounds of the invention in DMSO were added to a final percentage of 2% DMSO. After 60-minute incubation at 22° C., the reaction was measured using the EnVision mutlimode plate reader (PerkinElmer) via TR-FRET dual wavelength detection at […]. The percent of control was calculated using a ratiometric emission factor. The IC50 values were determined by fitting a four parameter model to the percent of control data.
Table A provides averaged IC50 values for compounds of the invention when tested in the assay of Example A, where A represents an averaged IC50 value <100 nM; B represents an averaged IC50 value from 100 to 1,000 nM; and C represents an average 1050 value above 1000 nM.

T1 sequence (P04629 440-796 limits assumed): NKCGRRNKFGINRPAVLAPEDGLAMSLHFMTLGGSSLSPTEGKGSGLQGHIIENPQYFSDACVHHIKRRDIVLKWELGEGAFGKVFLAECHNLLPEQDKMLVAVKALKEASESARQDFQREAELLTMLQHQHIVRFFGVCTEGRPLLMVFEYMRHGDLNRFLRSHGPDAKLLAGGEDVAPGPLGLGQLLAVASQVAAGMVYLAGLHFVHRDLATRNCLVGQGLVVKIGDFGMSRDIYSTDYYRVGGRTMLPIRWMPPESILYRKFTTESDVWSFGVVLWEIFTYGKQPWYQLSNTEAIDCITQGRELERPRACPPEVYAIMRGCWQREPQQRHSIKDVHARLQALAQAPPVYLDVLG

Compound	IC50 [nM]
COCc1ccc(OC(F)(F)F)c(CNC(=O)Nc2c(C)c(O[C@H]3C[C@H](N(C)C)C3)nn2-c2ccccc2)c1 [Example 104, 1-(3-((1r,3r)-3-(dimethylamino)cyclobutoxy)-4-methyl-1-phenyl-1H-pyrazol-5-yl)-3-(5-(methoxymethyl)-2-(trifluoromethoxy)benzyl)urea]	< 100
COCc1ccc(OC(F)F)c(CNC(=O)Nc2c(C)c(-c3cncc(OC)c3)nn2-c2ccccc2)c1 [Example 52, 1-(2-(difluoromethoxy)-5-(methoxymethyl)benzyl)-3-(3-(5-methoxypyridin-3-yl)-4-methyl-1-phenyl-1H-pyrazol-5-yl)urea]	< 100
CNC(=O)c1nn(-c2ccccc2)c(NC(=O)NCc2cc(COC)ccc2OC(F)F)c1C [Example 56, 5-(3-(2-(difluoromethoxy)-5-(methoxymethyl)benzyl)ureido)-N,4-dimethyl-1-phenyl-1H-pyrazole-3-carboxamide]	< 100
CNC(=O)c1nn(-c2ccccc2)c(NC(=O)NCc2cc(COC)ccc2OC(F)(F)F)c1C [Example 55, 5-(3-(5-(methoxymethyl)-2-(trifluoromethoxy)benzyl)ureido)-N,4-dimethyl-1-phenyl-1H-pyrazole-3-carboxamide]	< 100
COC(C)c1ccc(C2CCC2)c(CNC(=O)Nc2c(C)c(-c3cnc(C)nc3)nn2-c2ccccc2)c1 (stereo not drawn) [Example 16, 1-(2-cyclobutyl-5-(1-methoxyethyl)benzyl)-3-(4-methyl-3-(2-methylpyrimidin-5-yl)-1-phenyl-1H-pyrazol-5-yl)urea]	100 to 1000
COCc1cccc(C(NC(=O)Nc2c(C)c(-c3cnn(C)c3)nn2-c2ccccc2)C(F)(F)F)c1 (stereo not drawn) [Example 132]	> 1000
COCc1cccc(C(C)NC(=O)Nc2c(C)c(-c3cnn(C)c3)nn2-c2ccccc2)c1 (stereo not drawn) [Example 29, 1-(1′,4-dimethyl-1-phenyl-1H,1′H-[3,4′-bipyrazol]-5-yl)-3-(1-(3-(methoxymethyl)phenyl)ethyl)urea 2,2,2-trifluoroacetate]	100 to 1000
COCc1ccc(OC(F)F)c(CNC(=O)Nc2c(C)c(-c3cnc(OC)nc3)nn2-c2ccccc2)c1 [Example 62, 1-(2-(difluoromethoxy)-5-(methoxymethyl)benzyl)-3-(3-(2-methoxypyrimidin-5-yl)-4-methyl-1-phenyl-1H-pyrazol-5-yl)urea]	< 100
COCc1ccc(OC(F)(F)F)c(CNC(=O)Nc2c(C)c(OC[C@H](O)CO)nn2-c2ccccc2)c1 [Example 65, (R)-1-(3-(2,3-dihydroxypropoxy)-4-methyl-1-phenyl-1H-pyrazol-5-yl)-3-(5-(methoxymethyl)-2-(trifluoromethoxy)benzyl)urea]	< 100
COCc1ccc(OC(F)(F)F)c(CNC(=O)Nc2c(C)c(OCC3CNC3)nn2-c2ccccc2)c1 [Example 72, 1-(3-(azetidin-3-ylmethoxy)-4-methyl-1-phenyl-1H-pyrazol-5-yl)-3-(5-(methoxymethyl)-2-(trifluoromethoxy)benzyl)urea]	< 100
COCc1ccc(OC(F)(F)F)c(CNC(=O)Nc2c(C)c(OCC3CCNCC3)nn2-c2ccccc2)c1 [Example 67, 1-(5-(methoxymethyl)-2-(trifluoromethoxy)benzyl)-3-(4-methyl-1-phenyl-3-(piperidin-4-ylmethoxy)-1H-pyrazol-5-yl)urea]	< 100
COCc1ccc(OC(F)(F)F)c(CNC(=O)Nc2c(C)c(O[C@H]3CNC[C@H]3F)nn2-c2ccccc2)c1 [Example 80, 1-(3-(((3S,4R)-4-fluoropyrrolidin-3-yl)oxy)-4-methyl-1-phenyl-1H-pyrazol-5-yl)-3-(5-(methoxymethyl)-2-(trifluoromethoxy)benzyl)urea]	< 100
COCc1ccc(OC(F)(F)F)c(CNC(=O)Nc2c(C)c(OC[C@@H]3COCCN3)nn2-c2ccccc2)c1 [Example 103, (S)-1-(5-(methoxymethyl)-2-(trifluoromethoxy)benzyl)-3-(4-methyl-3-(morpholin-3-ylmethoxy)-1-phenyl-1H-pyrazol-5-yl)urea]	< 100
COCc1ccc(C2CCCC2)c(CNC(=O)Nc2c(C)c(-c3ccc(C)nc3)nn2-c2ccccc2)c1 [Example 13, 1-(2-cyclopentyl-5-(methoxymethyl)benzyl)-3-(4-methyl-3-(6-methylpyridin-3-yl)-1-phenyl-1H-pyrazol-5-yl)urea]	< 100
COCc1ccc(OC(F)(F)F)c(CNC(=O)Nc2c(C)c(-c3cncc(OC)c3)nn2-c2ccccc2)c1 [Example 54, 1-(5-(methoxymethyl)-2-(trifluoromethoxy)benzyl)-3-(3-(5-methoxypyridin-3-yl)-4-methyl-1-phenyl-1H-pyrazol-5-yl)urea]	< 100
COCc1ccc(OC(F)(F)F)c(CNC(=O)Nc2c(C)c(OC[C@@H]3CN(C)CCO3)nn2-c2ccccc2)c1 [Example 114, (S)-1-(5-(methoxymethyl)-2-(trifluoromethoxy)benzyl)-3-(4-methyl-3-((4-methylmorpholin-2-yl)methoxy)-1-phenyl-1H-pyrazol-5-yl)urea]	< 100
COCc1ccc(OC(F)(F)F)c(CNC(=O)Nc2c(C)c(OC3CC4(C3)CN(C)C4)nn2-c2ccccc2)c1 [Example 85, 1-(5-(methoxymethyl)-2-(trifluoromethoxy)benzyl)-3-(4-methyl-3-((2-methyl-2-azaspiro[3.3]heptan-6-yl)oxy)-1-phenyl-1H-pyrazol-5-yl)urea]	< 100
O=C(Nc1c2c(nn1-c1ccccc1)CCC2)NC(Cc1ccccc1)c1ccccc1 (stereo not drawn) [Example 40, 1-(1,2-diphenylethyl)-3-(2-phenyl-2,4,5,6-tetrahydrocyclopenta[c]pyrazol-3-yl)urea]	100 to 1000
COCc1ccc(OC(F)(F)F)c(CNC(=O)Nc2c(C)c(OC[C@@H]3CCN3)nn2-c2ccccc2)c1 [Example 92, (S)-1-(3-(azetidin-2-ylmethoxy)-4-methyl-1-phenyl-1H-pyrazol-5-yl)-3-(5-(methoxymethyl)-2-(trifluoromethoxy)benzyl)urea]	< 100
COCc1ccc(OC(F)(F)F)c(CNC(=O)Nc2c(C)c(OC[C@H](N)CO)nn2-c2ccccc2)c1 [Example 109, (R)-1-(3-(2-amino-3-hydroxypropoxy)-4-methyl-1-phenyl-1H-pyrazol-5-yl)-3-(5-(methoxymethyl)-2-(trifluoromethoxy)benzyl)urea]	< 100
COCc1cc(CNC(=O)Nc2c(C)c(-c3cnn(C)c3)nn2-c2ccccc2)c(C2CCC2)cn1 [Example 36, 1-((5-cyclobutyl-2-(methoxymethyl)pyridin-4-yl)methyl)-3-(1′,4-dimethyl-1-phenyl-1H,1′H-[3,4′-bipyrazol]-5-yl)urea]	< 100
COCc1ccc(C2CCC2)c(CNC(=O)Nc2c(C)c(OC[C@H]3COC(C)(C)O3)nn2-c2ccccc2)c1 [Example 124, (S)-1-(2-cyclobutyl-5-(methoxymethyl)benzyl)-3-(3-((2,2-dimethyl-1,3-dioxolan-4-yl)methoxy)-4-methyl-1-phenyl-1H-pyrazol-5-yl)urea]	< 100
COCc1ccc(OC(F)(F)F)c(CNC(=O)Nc2c(C)c(OCC3CCNC3)nn2-c2ccccc2)c1 (stereo not drawn) [Example 71]	< 100
COCc1ccc(OC(F)(F)F)c(CNC(=O)Nc2c(C)c(OC[C@H]3COCCN3)nn2-c2ccccc2)c1 [Example 102, (R)-1-(5-(methoxymethyl)-2-(trifluoromethoxy)benzyl)-3-(4-methyl-3-(morpholin-3-ylmethoxy)-1-phenyl-1H-pyrazol-5-yl)urea]	< 100
COCc1cccc(C(NC(=O)Nc2c(C)c(-c3ccn(C)c(=O)c3)nn2-c2ccccc2)C2CC2)c1 (stereo not drawn) [Example 27, 1-(cyclopropyl(3-(methoxymethyl)phenyl)methyl)-3-(4-methyl-3-(1-methyl-2-oxo-1,2-dihydropyridin-4-yl)-1-phenyl-1H-pyrazol-5-yl)urea]	100 to 1000
O=C(Nc1c2c(nn1-c1ccccc1)CCC2)NC(CCC(F)(F)F)Cc1ccccc1 (stereo not drawn) [Example 49, 1-(2-phenyl-2,4,5,6-tetrahydrocyclopenta[c]pyrazol-3-yl)-3-(5,5,5-trifluoro-1-phenylpentan-2-yl)urea]	100 to 1000
COCc1ccc(OC(F)(F)F)c(CNC(=O)Nc2c(C)c(O[C@H]3CCNC3)nn2-c2ccccc2)c1 [Example 83, (S)-1-(5-(methoxymethyl)-2-(trifluoromethoxy)benzyl)-3-(4-methyl-1-phenyl-3-(pyrrolidin-3-yloxy)-1H-pyrazol-5-yl)urea]	< 100
COCc1ccc(C(C)C)c(CNC(=O)Nc2c(C)c(-c3cnn(C)c3)nn2-c2ccccc2)c1 [Example 34, 1-(1′,4-dimethyl-1-phenyl-1H,1′H-[3,4′-bipyrazol]-5-yl)-3-(2-isopropyl-5-(methoxymethyl)benzyl)urea]	< 100
COCc1cccc(C(Cc2ccccc2)NC(=O)Nc2c(C)c(-c3cnn(C)c3)nn2-c2ccccc2)c1 (stereo not drawn) [Example 129, 1-(1′,4-dimethyl-1-phenyl-1H,1′H-[3,4′-bipyrazol]-5-yl)-3-(1-(3-(methoxymethyl)phenyl)-2-phenylethyl)urea]	< 100
COCc1ccc(OC(F)(F)F)c(CNC(=O)Nc2c(C)c(-c3cc(C)c(=O)n(C)c3)nn2-c2ccccc2)c1 [Example 74, 1-(3-(1,5-dimethyl-6-oxo-1,6-dihydropyridin-3-yl)-4-methyl-1-phenyl-1H-pyrazol-5-yl)-3-(5-(methoxymethyl)-2-(trifluoromethoxy)benzyl)urea]	< 100

From patent US9969694B2, “N-(arylalkyl)-N′-pyrazolyl-urea, thiourea, guanidine and cyanoguanidine compounds as TrkA kinase inhibitors” (Array BioPharma Inc., priority 2012, dated 2018)
